SMILES strings stand for the structures.

In the experiment the target is CK2A1 (CK2α/β) (Homo sapiens, UniProt P68400). Briefly: CK2 kinase assay, CK2A1 (CK2α/β). The format is biochemical. Conditions: Table A; read-out: CK2A1 (CK2α/β) (IC50).
CK2A1 (CK2α/β), sequence (P68400 whole entry, species assumed): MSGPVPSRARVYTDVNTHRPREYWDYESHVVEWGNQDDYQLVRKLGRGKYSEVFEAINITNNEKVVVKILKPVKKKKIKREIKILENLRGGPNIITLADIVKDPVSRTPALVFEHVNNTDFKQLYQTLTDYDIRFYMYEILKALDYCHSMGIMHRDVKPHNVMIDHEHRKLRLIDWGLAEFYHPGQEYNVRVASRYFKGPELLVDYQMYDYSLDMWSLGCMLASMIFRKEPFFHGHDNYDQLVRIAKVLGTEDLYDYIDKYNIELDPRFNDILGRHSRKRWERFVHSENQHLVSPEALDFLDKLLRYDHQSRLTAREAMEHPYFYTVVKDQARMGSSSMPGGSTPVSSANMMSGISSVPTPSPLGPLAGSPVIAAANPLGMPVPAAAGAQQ
CK2A1 (CK2α/β), sequence (P67870 whole entry partner, species assumed): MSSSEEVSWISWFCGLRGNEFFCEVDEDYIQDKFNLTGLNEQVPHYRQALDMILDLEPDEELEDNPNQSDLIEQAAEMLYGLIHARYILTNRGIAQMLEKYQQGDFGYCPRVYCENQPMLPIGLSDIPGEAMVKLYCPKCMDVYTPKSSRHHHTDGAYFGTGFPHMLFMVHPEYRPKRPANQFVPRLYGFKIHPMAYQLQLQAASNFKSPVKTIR
As to `COC(=O)N[C@H]1CCN(c2cc(C#N)cc(Nc3nc(NC4CC4)c4ncc(C#N)n4n3)c2Cl)C[C@@H]1N(C)CC(C)(C)O` [Example 765, methyl N-[(3S,4S)-1-(2-chloro-5-cyano-3-{[7-cyano-4-(cyclopropylamino)imidazo [2,1-f][1,2,4]triazin-2-yl]amino}phenyl)-3-[(2-hydroxy-2-methylpropyl)(methyl)amino]piperidin-4-yl] carbamate], the IC50 was found to be 23.2 nM.
Take `COC(=O)N[C@H]1CCN(c2cc(C#N)cc(Nc3nc(NC4CC4)c4ncc(C#N)n4n3)c2Cl)C[C@H]1N(C)CC#N` [Example 766, methyl N-[(3R,4S)-1-(2-chloro-5-cyano-3-{[7-cyano-4-(cyclopropylamino)imidazo [2,1-f][1,2,4]triazin-2-yl]amino}phenyl)-3-[(cyanomethyl)(methyl)amino]piperidin-4-yl]carbamate]: the IC50 came out at 6 nM.
As to `CCNc1nc(Nc2cc(C#N)cc(N3CC[C@@H](NC(=O)OC)[C@H](N(C)[C@@H](C)C(N)=O)C3)c2Cl)nn2c(C#N)cnc12` [Example 768, methyl N-[(3R,4R)-3-{[(1S)-1-carbamoylethyl](methyl)amino}-1-(2-chloro-5-cyano-3-{[7-cyano-4-(ethylamino)imidazo[2,1-f] [1,2,4]triazin-2-yl]amino}phenyl)piperidin-4-yl] carbamate], the IC50 amounted to 4 nM.
Turning to `CCNc1nc(Nc2cc(C#N)cc(N3CC[C@@H](NC(=O)OC)[C@H](N(C)CC(C)(C)O)C3)c2Cl)nn2c(C#N)cnc12` [Example 770, methyl N-[(3R,4R)-1-(2-chloro-5-cyano-3-{[7-cyano-4-(ethylamino)imidazo[2,1-f][1,2,4]triazin-2-yl]amino}phenyl)-3-[(2-hydroxy-2-methylpropyl)(methyl)amino]piperidin-4-yl] carbamate], the IC50 is 9 nM.
Then `CCNc1nc(Nc2cc(C#N)cc(N3CC[C@@H](NC(=O)OC)[C@@H](N(C)CC(C)(C)O)C3)c2Cl)nn2c(C#N)cnc12` [Example 771, methyl N-[(3S,4R)-1-(2-chloro-5-cyano-3-{[7-cyano-4-(ethylamino)imidazo[2,1-f][1,2,4]triazin-2-yl]amino}phenyl)-3-[(2-hydroxy-2-methylpropyl)(methyl)amino]piperidin-4-yl] carbamate], with 7 nM.
As for `CCNc1nc(Nc2cc(C#N)cc(N3CC[C@@H](NC(=O)OC)C(N(C)C[C@H](O)CO)C3)c2Cl)nn2c(C#N)cnc12` (stereo partly drawn) [Example 772, methyl N-[(4R)-1-(2-chloro-5-cyano-3-{[7-cyano-4-(ethylamino)imidazo[2,1-f][1,2,4]triazin-2-yl]amino}phenyl)-3-{[(2S)-2,3-dihydroxypropyl](methyl)amino}piperidin-4-yl]carbamate], the IC50 worked out at 14.1 nM.
For the compound `CCNc1nc(Nc2cc(C#N)cc(N3C[C@@H]4C[C@H]3CN4C)c2Cl)nn2c(C#N)cnc12` [Example 773, 2-((2-chloro-5-cyano-3-((1S,4S)-5-methyl-2,5-diazabicyclo[2.2.1]heptan-2-yl)phenyl)amino)-4-(ethylamino)imidazo[2,1-f][1,2,4]triazine-7-carbonitrile], the IC50 was 0.64 nM.
Then `N#Cc1cc(Nc2nc(NC3CC3)c3ncc(C#N)n3n2)c(Cl)c(N2C[C@@H]3CCCN(C4COC4)[C@@H]3C2)c1` [Example 778, 2-((2-chloro-5-cyano-3-((4aS,7aS)-1-(oxetan-3-yl)hexahydro-1H-pyrrolo[3,4-b]pyridin-6(2H)-yl)phenyl)amino)-4-(cyclopropylamino)imidazo[2,1-f][1,2,4]triazine-7-carbonitrile], with 1.09 nM.
The result for `CN1CC2(CCN(c3cc(C#N)cc(Nc4nc(NC5CC5)c5ncc(C#N)n5n4)c3Cl)CC2)OC1=O` [Example 780, 2-((2-chloro-5-cyano-3-(3-methyl-2-oxo-1-oxa-3,8-diazaspiro[4.5]decan-8-yl)phenyl)amino)-4-(cyclopropylamino)imidazo[2,1-f][1,2,4]triazine-7-carbonitrile] reads 0.67 nM.
The result for `CC(=O)N1CCC2(CCN(c3cc(C#N)cc(Nc4nc(NC5CC5)c5ncc(C#N)n5n4)c3Cl)CC2)C1` [Example 786, 2-((3-(2-acetyl-2,8-diazaspiro[4.5]decan-8-yl)-2-chloro-5-cyanophenyl)amino)-4-(cyclopropylamino)imidazo[2,1-f][1,2,4]triazine-7-carbonitrile] reads 1.41 nM.
As to `CCNc1nc(Nc2cc(C#N)cc(N3CCC4(CCN(C(C)=O)C4)CC3)c2Cl)nn2c(C#N)cnc12` [Example 787, 2-((3-(2-acetyl-2,8-diazaspiro[4.5]decan-8-yl)-2-chloro-5-cyanophenyl)amino)-4-(ethylamino)imidazo[2,1-f][1,2,4]triazine-7-carbonitrile], the IC50 amounted to 1.66 nM.
`CC(=O)NN1CCN(c2cc(C#N)cc(Nc3nc(NC4CC4)c4ncc(C#N)n4n3)c2Cl)CC1` [Example 789, N-(4-(2-chloro-5-cyano-3-((7-cyano-4-(cyclopropylamino)imidazo[2,1-f][1,2,4]triazin-2-yl)amino)phenyl)piperazin-1-yl)acetamide]: the IC50 was 0.61 nM.
With `COC(=O)NN1CCN(c2cc(C#N)cc(Nc3nc(NC4CC4)c4ncc(C#N)n4n3)c2Cl)CC1` [Example 790, methyl (4-(2-chloro-5-cyano-3-((7-cyano-4-(cyclopropylamino)imidazo[2,1-f][1,2,4]triazin-2-yl)amino)phenyl)piperazin-1-yl)carbamate], the IC50 was found to be 1.52 nM.
The result for `N#Cc1cc(Nc2nc(NC3CC3)c3ncc(C#N)n3n2)c(Cl)c(N2CCN(NCC(N)=O)CC2)c1` [Example 791, 2-((4-(2-chloro-5-cyano-3-((7-cyano-4-(cyclopropylamino)imidazo[2,1-f][1,2,4]triazin-2-yl)amino)phenyl)piperazin-1-yl)amino)acetamide] reads 1.52 nM; that for `N#Cc1cc(Nc2nc(NC3CC3)c3ncc(C#N)n3n2)c(Cl)c(N2CCC3(CC2)CNC3)c1` [Example 792, 2-((2-chloro-5-cyano-3-(2,7-diazaspiro[3.5]nonan-7-yl)phenyl)amino)-4-(cyclopropylamino)imidazo[2,1-f][1,2,4]triazine-7-carbonitrile], 1.03 nM.
Then `CC(=O)N1CC2(CCN(c3cc(C#N)cc(Nc4nc(NC5CC5)c5ncc(C#N)n5n4)c3Cl)CC2)C1` [Example 793, 2-((3-(2-acetyl-2,7-diazaspiro[3.5]nonan-7-yl)-2-chloro-5-cyanophenyl)amino)-4-(cyclopropylamino)imidazo[2,1-f][1,2,4]triazine-7-carbonitrile], with 0.81 nM; and `C[C@@H](O)C(=O)N1CC2(CCN(c3cc(C#N)cc(Nc4nc(NC5CC5)c5ncc(C#N)n5n4)c3Cl)CC2)C1` [Example 794, (R)-2-((2-chloro-5-cyano-3-(2-(2-hydroxypropanoyl)-2,7-diazaspiro[3.5]nonan-7-yl)phenyl)amino)-4-(cyclopropylamino)imidazo[2,1-f][1,2,4]triazine-7-carbonitrile], with 1.41 nM.
In the case of `C[C@H](O)C(=O)N1CC2(CCN(c3cc(C#N)cc(Nc4nc(NC5CC5)c5ncc(C#N)n5n4)c3Cl)CC2)C1` [Example 795, (S)-2-((2-chloro-5-cyano-3-(2-(2-hydroxypropanoyl)-2,7-diazaspiro[3.5]nonan-7-yl)phenyl)amino)-4-(cyclopropylamino)imidazo[2,1-f][1,2,4]triazine-7-carbonitrile], the IC50 was determined as 1.12 nM.

For the origin of these results see patent publication US9273057B2 (Bristol-Myers Squibb Company, priority 2012, dated 2016).
